# In paper PMC13210772, “Dual FLT3/MAPK14 Proteolysis-Targeting Chimera (PROTAC) Induces Potent Acute Myeloid Leukemia Cell Death” (Pharmaceuticals, 2026):
# Assays:
# Assay in all cases: NanoBRET CELLinib128
# Assay type in all cases: binding
# [1] = biological target: T1, PRKCQ-PMA (Homo sapiens, UniProt Q04759); settings: 100% no effect, 0% complete tracer displacement, read-out: Tracer bound
# T1 construct: Full-length kinase ORF (Promega, Madison, WI, USA) cloned in frame with a NanoLuc-vector was transfected into HEK293T cells; host or cells: HEK293T
# Experimental: (§1) To get an impression about the binding strength of the PROTAC MA191 and the reference inhibitor MA68 to other kinases besides FLT3-ITD the binding on a kinase panel of further 128 representative protein kinases at 1 μM concentration was tested using the NanoBRET^TM cellular target engagement assay (CELLinib128 assay, CELLinib GmbH, Frankfurt, Germany). […] In none of the 128 kinases MA191 was able to displace the tracer (inhibitor) used by more than 50%, Table S1, Supplementary Information).
# (§2) The CELLinib128 assay was performed by CELLinib GmbH, Frankfurt (Germany) as described previously. In brief: Full-length kinase ORF (Promega, Madison, WI, USA) cloned in frame with a NanoLuc-vector was transfected into HEK293T cells in Opti-MEM without phenol red (Life Technologies, Carlsbad, CA, USA) at a density of 2 × 10^5 cells/mL using FuGENE HD (Promega, E2312) and proteins were allowed to express for 20 h. For CDKs, where indicated below, an excess of an activator without an NLuc-fusion was cotransfected. […] The system was allowed to equilibrate at 37 °C for 2 h and 5% CO2 prior to BRET measurements. For PKCs, a chemical activator PMA was added in a final concentration of 1 µM was added together with test compounds and tracers (Promega, V1171). To measure BRET, NanoBRET^TM NanoGlo substrate + extracellular NanoLuc inhibitor (Promega, N2160) were added as per the manufacturer’s protocol, and filtered luminescence was measured (450 nm BP filter (donor) and 610 nm LP filter (acceptor)). For the 1-shot test compounds, data were normalized to the tracer control and the background control or control compound plateau and an average and SD were calculated. […] For the control compounds competitive displacement data were normalized to the tracer Ctrl and the background Ctrl and then plotted and fitted using GraphPad Prism 10 software using a normalized 3-parameter curve fit with the following equation: Y = 100/(1 + 10^X−LogIC50).
# [2] = biological target: T2, SIK1 (Homo sapiens, UniProt P57059); settings: 1 µM; 100% no effect, 0% complete tracer displacement
# T2 construct: Full-length kinase ORF (Promega, Madison, WI, USA) cloned in frame with a NanoLuc-vector was transfected into HEK293T cells; host or cells: HEK293T
# Experimental: as §1, §2
# [3] = biological target: T3, PLK4 (Homo sapiens, UniProt O00444); settings: 100% no effect, 0% complete tracer displacement, read-out: Tracer bound
# T3 construct: Full-length kinase ORF (Promega, Madison, WI, USA) cloned in frame with a NanoLuc-vector was transfected into HEK293T cells; host or cells: HEK293T
# Experimental: as §1, §2
# [4] = biological target: T4, STK36 (Homo sapiens, UniProt Q9NRP7); settings: 100% no effect, 0% complete tracer displacement, read-out: Tracer bound
# T4 construct: Full-length kinase ORF (Promega, Madison, WI, USA) cloned in frame with a NanoLuc-vector was transfected into HEK293T cells; host or cells: HEK293T
# Experimental: as §1, §2
# [5] = biological target: T5, CDK17-CCNY (Homo sapiens, UniProt Q00537); settings: 100% no effect, 0% complete tracer displacement, read-out: Tracer bound
# T5 construct: Full-length kinase ORF (Promega, Madison, WI, USA) cloned in frame with a NanoLuc-vector was transfected into HEK293T cells; host or cells: HEK293T
# Experimental: as §1, §2
# [6] = biological target: T6, STK3 (Homo sapiens, UniProt Q13188); settings: 100% no effect, 0% complete tracer displacement, read-out: Tracer bound
# T6 construct: Full-length kinase ORF (Promega, Madison, WI, USA) cloned in frame with a NanoLuc-vector was transfected into HEK293T cells; host or cells: HEK293T
# Experimental: as §1, §2
# [7] = biological target: T7, BTK (Homo sapiens, UniProt Q06187); settings: 1 µM; 100% no effect, 0% complete tracer displacement
# T7 construct: Full-length kinase ORF (Promega, Madison, WI, USA) cloned in frame with a NanoLuc-vector was transfected into HEK293T cells; host or cells: HEK293T
# Experimental: as §1, §2
# [8] = biological target: T8, TEK (Homo sapiens, UniProt Q02763); settings: 100% no effect, 0% complete tracer displacement, read-out: Tracer bound
# T8 construct: Full-length kinase ORF (Promega, Madison, WI, USA) cloned in frame with a NanoLuc-vector was transfected into HEK293T cells; host or cells: HEK293T
# Experimental: as §1, §2
# [9] = biological target: T9, NEK9 (Homo sapiens, UniProt Q8TD19); settings: 100% no effect, 0% complete tracer displacement, read-out: Tracer bound
# T9 construct: Full-length kinase ORF (Promega, Madison, WI, USA) cloned in frame with a NanoLuc-vector was transfected into HEK293T cells; host or cells: HEK293T
# Experimental: as §1, §2
# [10] = biological target: T10, CHEK2 (Homo sapiens, UniProt O96017); settings: 100% no effect, 0% complete tracer displacement, read-out: Tracer bound
# T10 construct: Full-length kinase ORF (Promega, Madison, WI, USA) cloned in frame with a NanoLuc-vector was transfected into HEK293T cells; host or cells: HEK293T
# Experimental: as §1, §2
# [11] = biological target: T11, FGFR1 (Homo sapiens, UniProt P11362); settings: 100% no effect, 0% complete tracer displacement, read-out: Tracer bound
# T11 construct: Full-length kinase ORF (Promega, Madison, WI, USA) cloned in frame with a NanoLuc-vector was transfected into HEK293T cells; host or cells: HEK293T
# Experimental: as §1, §2
# [12] = biological target: T12, JAK2 (Homo sapiens, UniProt O60674); settings: 1 µM; 100% no effect, 0% complete tracer displacement
# T12 construct: Full-length kinase ORF (Promega, Madison, WI, USA) cloned in frame with a NanoLuc-vector was transfected into HEK293T cells; host or cells: HEK293T
# Experimental: as §1, §2
# [13] = biological target: T13, PTK2 (Homo sapiens, UniProt Q05397); settings: 100% no effect, 0% complete tracer displacement, read-out: Tracer bound
# T13 construct: Full-length kinase ORF (Promega, Madison, WI, USA) cloned in frame with a NanoLuc-vector was transfected into HEK293T cells; host or cells: HEK293T
# Experimental: as §1, §2
# [14] = biological target: T14, NEK1 (Homo sapiens, UniProt Q96PY6); settings: 100% no effect, 0% complete tracer displacement, read-out: Tracer bound
# T14 construct: Full-length kinase ORF (Promega, Madison, WI, USA) cloned in frame with a NanoLuc-vector was transfected into HEK293T cells; host or cells: HEK293T
# Experimental: as §1, §2
# [15] = biological target: T15, MAPK6 (Homo sapiens, UniProt Q16659); settings: 100% no effect, 0% complete tracer displacement, read-out: Tracer bound
# T15 construct: Full-length kinase ORF (Promega, Madison, WI, USA) cloned in frame with a NanoLuc-vector was transfected into HEK293T cells; host or cells: HEK293T
# Experimental: as §1, §2
# T9 sequence (Q8TD19 whole entry): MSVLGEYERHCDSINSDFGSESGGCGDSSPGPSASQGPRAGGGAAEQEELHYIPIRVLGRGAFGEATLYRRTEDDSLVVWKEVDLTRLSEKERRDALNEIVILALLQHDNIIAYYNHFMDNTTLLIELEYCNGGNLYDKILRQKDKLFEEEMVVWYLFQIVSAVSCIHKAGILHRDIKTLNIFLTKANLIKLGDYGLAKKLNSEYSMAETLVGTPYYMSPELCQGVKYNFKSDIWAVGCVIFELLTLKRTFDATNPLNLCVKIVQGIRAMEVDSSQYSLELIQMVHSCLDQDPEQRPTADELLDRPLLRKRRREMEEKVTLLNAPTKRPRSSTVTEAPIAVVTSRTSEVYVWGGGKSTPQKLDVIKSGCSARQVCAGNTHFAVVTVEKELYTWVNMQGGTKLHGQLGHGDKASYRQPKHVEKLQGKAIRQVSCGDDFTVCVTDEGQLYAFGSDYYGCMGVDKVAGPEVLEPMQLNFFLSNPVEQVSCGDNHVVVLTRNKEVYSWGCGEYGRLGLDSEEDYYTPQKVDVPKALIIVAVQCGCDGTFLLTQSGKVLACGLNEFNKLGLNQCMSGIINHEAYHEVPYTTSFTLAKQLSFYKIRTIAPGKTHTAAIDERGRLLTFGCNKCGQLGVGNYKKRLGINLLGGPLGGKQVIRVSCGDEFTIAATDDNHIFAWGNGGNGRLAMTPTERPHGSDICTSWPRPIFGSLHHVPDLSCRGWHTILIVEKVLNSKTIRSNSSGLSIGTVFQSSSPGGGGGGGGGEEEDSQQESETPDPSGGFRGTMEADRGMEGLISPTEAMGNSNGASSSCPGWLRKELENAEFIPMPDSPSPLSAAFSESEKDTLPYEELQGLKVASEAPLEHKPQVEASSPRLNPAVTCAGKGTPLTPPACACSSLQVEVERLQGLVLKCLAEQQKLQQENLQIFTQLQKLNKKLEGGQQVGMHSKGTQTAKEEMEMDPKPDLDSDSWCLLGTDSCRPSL
# T6 sequence (Q13188 whole entry): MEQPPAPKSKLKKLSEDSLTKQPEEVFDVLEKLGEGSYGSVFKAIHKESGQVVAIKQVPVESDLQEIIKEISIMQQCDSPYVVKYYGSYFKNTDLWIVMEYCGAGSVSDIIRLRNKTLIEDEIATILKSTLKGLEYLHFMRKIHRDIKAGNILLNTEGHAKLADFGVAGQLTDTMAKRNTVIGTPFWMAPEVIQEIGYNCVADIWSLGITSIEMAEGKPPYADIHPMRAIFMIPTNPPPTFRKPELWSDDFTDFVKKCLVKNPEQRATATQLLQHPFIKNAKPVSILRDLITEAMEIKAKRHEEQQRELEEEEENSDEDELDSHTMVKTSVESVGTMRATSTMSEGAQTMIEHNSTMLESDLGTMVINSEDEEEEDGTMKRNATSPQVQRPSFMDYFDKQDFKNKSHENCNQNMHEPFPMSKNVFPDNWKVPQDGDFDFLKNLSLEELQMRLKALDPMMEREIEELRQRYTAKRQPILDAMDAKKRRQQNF
# T10 sequence (O96017 whole entry): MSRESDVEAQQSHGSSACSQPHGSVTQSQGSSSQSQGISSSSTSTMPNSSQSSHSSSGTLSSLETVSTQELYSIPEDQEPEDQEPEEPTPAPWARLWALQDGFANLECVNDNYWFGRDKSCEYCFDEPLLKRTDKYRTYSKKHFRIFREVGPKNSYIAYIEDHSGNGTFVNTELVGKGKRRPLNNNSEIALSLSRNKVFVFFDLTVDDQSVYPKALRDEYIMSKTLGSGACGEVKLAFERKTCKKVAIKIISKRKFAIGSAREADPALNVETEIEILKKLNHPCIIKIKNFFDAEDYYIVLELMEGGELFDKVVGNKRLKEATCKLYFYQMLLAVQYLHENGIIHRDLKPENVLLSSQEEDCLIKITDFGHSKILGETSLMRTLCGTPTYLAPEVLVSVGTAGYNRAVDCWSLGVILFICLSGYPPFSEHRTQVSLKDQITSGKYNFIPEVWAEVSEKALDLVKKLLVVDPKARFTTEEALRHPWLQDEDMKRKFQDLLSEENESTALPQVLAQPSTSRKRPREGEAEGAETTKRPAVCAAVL
# T5 sequence (Q00537 whole entry): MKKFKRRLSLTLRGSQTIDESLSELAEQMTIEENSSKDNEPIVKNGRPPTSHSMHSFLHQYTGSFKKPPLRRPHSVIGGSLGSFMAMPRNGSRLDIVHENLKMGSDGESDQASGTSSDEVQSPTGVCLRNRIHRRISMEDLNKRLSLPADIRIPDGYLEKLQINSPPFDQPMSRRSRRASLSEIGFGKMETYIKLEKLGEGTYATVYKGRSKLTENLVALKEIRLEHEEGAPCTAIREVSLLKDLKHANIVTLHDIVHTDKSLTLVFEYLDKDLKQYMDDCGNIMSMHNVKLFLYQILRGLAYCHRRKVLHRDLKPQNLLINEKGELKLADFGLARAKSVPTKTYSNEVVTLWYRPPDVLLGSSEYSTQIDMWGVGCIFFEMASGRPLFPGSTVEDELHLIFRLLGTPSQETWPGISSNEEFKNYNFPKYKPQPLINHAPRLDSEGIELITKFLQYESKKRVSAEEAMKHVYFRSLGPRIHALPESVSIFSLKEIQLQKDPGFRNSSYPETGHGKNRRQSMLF
# T5 sequence (Q8ND76 whole entry partner): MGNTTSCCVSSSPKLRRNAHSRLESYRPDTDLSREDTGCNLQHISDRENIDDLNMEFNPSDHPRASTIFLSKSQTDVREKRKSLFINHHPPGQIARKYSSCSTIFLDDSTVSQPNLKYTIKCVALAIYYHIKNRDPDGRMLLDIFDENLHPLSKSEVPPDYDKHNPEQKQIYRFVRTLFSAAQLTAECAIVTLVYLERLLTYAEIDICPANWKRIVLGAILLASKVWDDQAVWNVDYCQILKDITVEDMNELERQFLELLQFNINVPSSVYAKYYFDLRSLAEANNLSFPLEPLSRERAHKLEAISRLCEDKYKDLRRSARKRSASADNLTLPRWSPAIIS
# T12 sequence (O60674 whole entry): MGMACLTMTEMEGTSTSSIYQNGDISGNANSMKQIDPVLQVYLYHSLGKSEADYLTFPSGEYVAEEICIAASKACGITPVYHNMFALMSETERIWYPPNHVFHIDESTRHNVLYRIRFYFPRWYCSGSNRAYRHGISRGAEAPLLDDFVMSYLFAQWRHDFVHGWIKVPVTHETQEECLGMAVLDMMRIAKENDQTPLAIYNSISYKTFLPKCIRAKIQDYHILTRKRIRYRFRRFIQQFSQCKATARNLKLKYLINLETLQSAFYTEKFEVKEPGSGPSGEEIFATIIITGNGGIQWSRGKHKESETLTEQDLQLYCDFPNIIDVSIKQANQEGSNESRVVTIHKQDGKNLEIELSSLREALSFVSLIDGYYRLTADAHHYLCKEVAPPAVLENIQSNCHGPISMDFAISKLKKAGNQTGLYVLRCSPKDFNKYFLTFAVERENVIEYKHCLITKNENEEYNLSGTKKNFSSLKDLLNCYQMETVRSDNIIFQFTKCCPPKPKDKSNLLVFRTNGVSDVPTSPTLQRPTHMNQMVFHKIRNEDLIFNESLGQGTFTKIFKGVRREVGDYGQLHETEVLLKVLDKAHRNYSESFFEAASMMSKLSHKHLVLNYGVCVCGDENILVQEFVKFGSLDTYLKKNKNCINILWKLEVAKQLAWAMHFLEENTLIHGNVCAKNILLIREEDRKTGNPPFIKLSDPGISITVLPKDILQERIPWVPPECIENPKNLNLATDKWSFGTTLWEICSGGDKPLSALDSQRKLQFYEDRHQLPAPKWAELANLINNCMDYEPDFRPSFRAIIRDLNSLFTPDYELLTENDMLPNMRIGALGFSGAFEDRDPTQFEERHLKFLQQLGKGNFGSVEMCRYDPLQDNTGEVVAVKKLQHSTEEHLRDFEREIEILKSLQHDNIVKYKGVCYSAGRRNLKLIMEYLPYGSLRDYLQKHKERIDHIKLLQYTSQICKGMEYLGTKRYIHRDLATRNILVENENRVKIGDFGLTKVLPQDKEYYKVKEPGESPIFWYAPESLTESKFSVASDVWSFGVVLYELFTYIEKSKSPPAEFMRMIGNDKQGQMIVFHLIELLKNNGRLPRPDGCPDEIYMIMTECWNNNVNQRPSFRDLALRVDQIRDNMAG
# T1 sequence (Q04759 whole entry): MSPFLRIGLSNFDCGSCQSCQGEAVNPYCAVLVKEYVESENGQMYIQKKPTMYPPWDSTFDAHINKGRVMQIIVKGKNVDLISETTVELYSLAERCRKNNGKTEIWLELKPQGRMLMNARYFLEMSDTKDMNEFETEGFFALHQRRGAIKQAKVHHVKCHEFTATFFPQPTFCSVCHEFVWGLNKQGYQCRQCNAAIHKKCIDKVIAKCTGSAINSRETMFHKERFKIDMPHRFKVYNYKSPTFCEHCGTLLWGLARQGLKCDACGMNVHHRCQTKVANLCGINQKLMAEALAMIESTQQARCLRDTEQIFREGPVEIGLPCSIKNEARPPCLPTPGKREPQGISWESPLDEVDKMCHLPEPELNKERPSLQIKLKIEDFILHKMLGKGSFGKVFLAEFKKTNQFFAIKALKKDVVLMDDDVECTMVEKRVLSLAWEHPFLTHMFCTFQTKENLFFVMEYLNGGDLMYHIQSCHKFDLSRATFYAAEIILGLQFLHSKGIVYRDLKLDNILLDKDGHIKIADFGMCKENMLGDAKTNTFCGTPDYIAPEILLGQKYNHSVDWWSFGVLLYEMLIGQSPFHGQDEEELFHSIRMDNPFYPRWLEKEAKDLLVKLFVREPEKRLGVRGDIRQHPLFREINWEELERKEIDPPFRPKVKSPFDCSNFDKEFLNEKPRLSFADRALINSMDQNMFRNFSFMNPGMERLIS
smiles,measurement,setting,value
"Cc1ncsc1-c1ccc([C@H](C)NC(=O)[C@@H]2C[C@@H](O)CN2C(=O)[C@@H](NC(=O)[C@H]2CC[C@H](C(=O)N3CCN(CCNC(=O)c4cc(Oc5ccc(NC(=O)Nc6cc(C(C)(C)C)on6)cc5)ccn4)CC3)CC2)C(C)(C)C)cc1 [MA191, 4-(4-(3-(5-(tert-Butyl)isoxazol-3-yl)ureido)phenoxy)-N-(2-(4-(trans-4-(((S)-1-((2S,4R)-4-hydroxy-2-(((S)-1-(4-(4-methylthiazol-5-yl)phenyl)ethyl)carbamoyl)pyrrolidin-1-yl)-3,3-dimethyl-1-oxobutan-2-yl)carbamoyl)cyclohexanecarbonyl)piperazin-1-yl)ethyl)picolinamide]",remaining activity at 1 µM,[1],104%
same,Tracer bound,[2],115.0%
same,remaining activity at 1 µM,[3],112%
same,remaining activity at 1 µM,[4],119%
same,remaining activity at 1 µM,[5],81.3%
same,remaining activity at 1 µM,[6],105%
same,Tracer bound,[7],120.0%
same,remaining activity at 1 µM,[8],85.7%
same,remaining activity at 1 µM,[9],109%
same,remaining activity at 1 µM,[10],111%
same,remaining activity at 1 µM,[11],103%
same,Tracer bound,[12],105.7%
same,remaining activity at 1 µM,[13],113%
same,remaining activity at 1 µM,[14],95.9%
same,remaining activity at 1 µM,[15],120%
